# Results from patent US11376269B2, “Pharmaceutical compositions for the treatment of chemoresistant acute myeloid leukemia (AML)” (INSERM (INSTITUT NATIONAL DE LA SANTÉ ET DE LA RECHERCHE …, priority 2016, dated 2022).
# Experiments:
# [1] = tested on: U937; test: U937 (sensitive) cell line-derived xenograft (CLDX); assay type: in vivo, mice
# Description: (§1) FIG. 2. Validation of the increase in CD39 after cytarabine (AraC) in 9 patient-derived xenografts, 45 AML patients and 2 cell line-derived xenografts. (A) The total number of human AML cells expressing CD45, CD33 and CD44 in 9 patient-derived xenograft (PDX) was analyzed and quantified using flow cytometry in AraC-treated xenografted mice compared to PBS-treated xenografted mice in bone marrow and spleen. (B) Flow cytometric analysis of the percent of CD34^+CD38^− immature cell population was performed in human viable residual CD45^+CD33^+ AML cells from AraC-treated xenografted mice compared to PBS-treated xenografted mice in bone marrow. (C) The percent of CD39^+ cells in the bulk population and CD34^+CD38^− immature cell population of human viable residual CD45^+CD33^+ AML cells was assessed in AraC-treated xenografted mice compared to PBS-treated xenografted mice in bone marrow by flow cytometry. […]
# (§2) Validation of the increase in CD39 expression in 9 patient-derived xenograft (PDX) models treated with cytarabine and in 45 AML patients at D35 compared to diagnosis. […] Then, we analyzed CD39 expression in two AML cell line-derived xenografts, which confirmed our previous results in patients and PDXs.
# [2] = tested on: CD39; test: ATPase activity of CD39 in MOLM14 cells, non-hydrolyzed extracellular ATP by ATPlite assay; assay type: cell-based, human; details: MOLM14 after AraC, normoxic and hypoxic conditions
# Description: (§3) FIG. 3. In vitro study of the CD39 protein expression in MOLM14 AML cells after cytarabine (AraC) treatment in normoxia (21%) and hypoxia (1%). (A) Western analysis of the expression of HIF-1alpha, VDAC, CD39, P2Y13, pATF2 and HSP90 (as loading control) in MOLM14 cells after normoxia (21% O2) or hypoxia (1% O2) for 24 h, 48 h or 72 h. Each lane contained 30 μg of protein. […] Flow cytometric analyses were perform to assess cell viability (B), CD39^+ expression (C-D). […] The ATPase activity of CD39 in MOLM14 cells after Ara-C treatment was assessed and the concentration of non-hydrolyzed extracellular ATP was determined using the ATPlite assay (PerkinElmer) (E).
# (§4) Then, we have established an AML cell line model to further study this mechanism. Using MOLM14 AML cell lines and hypoxic condition (1% versus 21% O2), we have analyzed the CD39 expression and ATP-hydrolyzing activity (FIG. 3).
# [3] = tested on: MOLM14 cells; test: Cell viability of MOLM14 cells, AnnexinV/7AAD-based flow cytometry assay; parameters: species or system human
# Description: FIG. 3. In vitro study of the CD39 protein expression in MOLM14 AML cells after cytarabine (AraC) treatment in normoxia (21%) and hypoxia (1%). (A) Western analysis of the expression of HIF-1alpha, VDAC, CD39, P2Y13, pATF2 and HSP90 (as loading control) in MOLM14 cells after normoxia (21% O2) or hypoxia (1% O2) for 24 h, 48 h or 72 h. Each lane contained 30 μg of protein. (B-C-D) MOLM14 cells were treated with AraC (2 μM, IC50 in normoxia) for 48 h either in normoxia (21% O2) or hypoxia (1% O2). Flow cytometric analyses were perform to assess cell viability (B), CD39^+ expression (C-D). The results are representative of at least three independent experiments. The ATPase activity of CD39 in MOLM14 cells after Ara-C treatment was assessed and the concentration of non-hydrolyzed extracellular ATP was determined using the ATPlite assay (PerkinElmer) (E).
# (§5) FIG. 4. In vitro potentiatingeffect of ARL67156 (CD39 inhibitor) with cytarabine (AraC) in MOLM14 cell line. (A-B) MOLM14 cells were either treated or not with 2 μM Ara-C, 100 μmol/L ARL or 250 μmol/L of another CD39 inhibitor, POM-1, for 48 h. Cell viability was assessed using AnnexinV/7AAD-based flow cytometry assay. (C) U937 AML cell line was either treated or not with 0.5 μM Ara-C or 100 μmol/L ARL. The percent of viable cells was analyzed using AnnexinV/7AAD-based flow cytometry assay.
# (§6) In vitro potentiating effect of CD39 inhibitor with cytarabine in MOLM14 cell line. In order to explore the effect of CD39 onto the chemoresistance to AraC in AML cell lines in vitro, we first tested the consequence of CD39 inhibition using an ecto-ATPase inhibitor ARL67156. […] High ADP and/or P2YR13 activation might be involved into this compensatory and protective mechanism.
# [4] = tested on: AML blasts; test: Flow cytometry of peripheral blood of 45 AML patients at D35 post-chemotherapy versus diagnosis; assay type: in vivo, human; details: day 35 post-AraC versus diagnosis
# Description: as §1, §2
# [5] = tested on: CD39; test: CD39 expression in MOLM14 cells after AraC in normoxia and hypoxia, flow cytometry; assay type: cell-based, human; details: MOLM14, AraC 2 μM, 48 h, normoxic and hypoxic conditions
# Description: as §3, §4
# [6] = tested on: primary AML cells from patients; test: NSG mice xenografted with primary AML cells from patients (PDX), flow cytometry of residual cells; assay type: in vivo
# Description: FIG. 2. Validation of the increase in CD39 after cytarabine (AraC) in 9 patient-derived xenografts, 45 AML patients and 2 cell line-derived xenografts. (A) The total number of human AML cells expressing CD45, CD33 and CD44 in 9 patient-derived xenograft (PDX) was analyzed and quantified using flow cytometry in AraC-treated xenografted mice compared to PBS-treated xenografted mice in bone marrow and spleen. (B) Flow cytometric analysis of the percent of CD34^+CD38^− immature cell population was performed in human viable residual CD45^+CD33^+ AML cells from AraC-treated xenografted mice compared to PBS-treated xenografted mice in bone marrow. (C) The percent of CD39^+ cells in the bulk population and CD34^+CD38^− immature cell population of human viable residual CD45^+CD33^+ AML cells was assessed in AraC-treated xenografted mice compared to PBS-treated xenografted mice in bone marrow by flow cytometry. (D-E-F) Similarly, flow cytometric analyses of 45 AML patients in peripheral blood at D35 (post-chemotherapy) and diagnosis to assess the percentage of blasts (D), of CD34^+CD38^− immature cells (E), and of CD39^+ residual cells in both total blasts (bulk) and CD34^+CD38^− population (F). (G-H) Flow cytometry analysis of 1 resistant cell line (MOLM14) and 1 sensitive cell line (U937)-derived xenograft (CLDX) to assess the total cell tumor burden of human viable AML cells in AraC- and PBS-treated CLDX (G), the percent of CD39^+ cells (H).
# Until recently, mouse models of AML have been extensively used to characterize the nature and origin of LSCs (in part by our group: Sanchez et al. 2009. Sarry et al. 2011), but less frequently used to study their chemoresistance and miminum residual disease in vivo, an approach that is crucial to improve therapeutic outcome of AML patients. Thus, we tested and established an appropriate dose and regimen for use of AraC as baseline cytotoxic in our NSG mice xenografted with primary AML cells from patients seen at diagnosis or relapse of disease. We have access to a large resource of primary samples through our Biobank of the Hematology Clinical Department of the Oncopole Hospital in Toulouse (HIMIP, INSERM-U1037, ˜150 patients newly diagnosed/year) and in collaboration with Drs Gwen Danet-Desnoyers and Martin Carroll (University of Pennsylvania, Pa., USA). Then, we analyzed human AML cells surviving after AraC treatment over time. […] CANCER DISCOVERY. 2017).
# Based on this model and the current hypothesis that AraC-resistant cells are rare, replicatively dormant and well adapted to hypoxic conditions (Ishikawa et al. 2007; Raaijmakers, 2011; Wilson and Hay, 2011), we have further analyzed all of these characteristics in AraC-treated patient-xenografted mice. We have first confirmed that CD34^+CD38^− cell population is increased post-AraC chemotherapy in residual AML cells. […] Finally, we have identified a signature of 15 genes (amongst of 350 genes, including CD39/ENTPD1 and P2Y13), that are the most differentially expressed in all of the three AML patient-derived xenografts after AraC treatment as compared to control samples using our in vivo PDX models coupled to a gene expression analysis (FIG. 1a).
# as §2, with “diagnosis. We first examined the effect of AraC on CD39 expression in residual viable AML cells from our NSG model xenografted with primary AML cells from 9 patients (FIG. 2a).” for “diagnosis.”
# [7] = tested on: U937 AML cell line; test: Cell viability of U937 AML cell line, AnnexinV/7AAD-based flow cytometry assay; parameters: species or system human; details: U937, 0.5 μM Ara-C, 100 μmol/L ARL
# Description: as §5, §6
# [8] = AraC-treated patient-xenografted mice
Compound,total cell tumor burden in bone marrow and spleen [1],CD39 expression ([1]; post-AraC versus vehicle),remaining ATP (ATP-hydrolyzing activity of CD39) [2],"IC50 ([3]; Homo sapiens, MOLM-14, MOLM14 cells, normoxia (21% O2)) [nM]",CD34+CD38− population and CD39 cells in residual bulk and immature populations [4],percent and expression of CD39 in residual viable cells [5],"total cell tumor burden in bone marrow and spleen ([6]; 9 PDX, AraC-treated versus PBS-treated mice)","percent of CD39 cells in bulk and immature CD34+CD38− population ([6]; 9 PDX, AraC-treated versus control mice)","CD34+CD38− population in residual AML cells ([6]; 9 PDX, post-AraC, bone marrow)","killing of cycling and quiescent cells and LSCs in vivo [6, 8]","type of cell death induced in vivo [6, 8]","peripheral engraftment and total cell tumor burden ([6]; all patients tested, PDX in NSG mice)","duration of response ([6]; variable from patient to patient, PDX in NSG mice)","induction of cell death alone ([3]; MOLM14, 100 μmol/L ARL, 48 h, in absence of AraC)","potentiating effect with AraC on cell death ([3]; MOLM14, with 2 μM Ara-C, 100 μmol/L ARL or 250 μmol/L POM-1, 48 h)",potentiation of the effect of AraC in inducing cell death [7]
"Nc1ccn([C@@H]2O[C@H](CO)[C@@H](O)[C@@H]2O)c(=O)n1 [AraC, cytarabine]",significant cytoreduction,increases,significant decrease,2000,increase,increased the percent and expression of CD39,significant cytoreduction,increase in percent of CD39 cells,increase,equally kills both cycling and quiescent cells as well as LSCs in vivo,ROS-/MMP-dependent apoptotic cell death,significant cytoreduction,2-7 weeks,,,
CCN(CC)c1ncnc2c1ncn2[C@@H]1O[C@H](COP(=O)(O)OP(=O)(O)C(Br)(Br)P(=O)(O)O)[C@@H](O)[C@H]1O [ARL67156],,,,,,,,,,,,,,did not induce cell death alone,potentiatingeffect,did not potentiate the effect of AraC in inducing cell death
